Laboratory results: patent US7538111B2, “Benzenesulphonamide derivatives, method for production and use thereof for treatment of pain” (Laboratoires Fournier S.A., priority 2003, dated 2009)
Structures can show the parent of a compound that is named as a salt.

tested on: not given; experiment: not given; details: not given

Row | Compound | melting point [°C]
1 | CCN(CC)CCC1CCN(C(=O)COCCN(C)S(=O)(=O)c2c(C)cc(OC)cc2C)CC1.O=C(O)/C=C/C(=O)O | 60
2 | COc1cc(C)c(S(=O)(=O)N(C)CCOCC(=O)N2CCC(CN3CCC3)CC2)c(C)c1.O=C(O)/C=C/C(=O)O | 75
3 | COc1cc(C)c(S(=O)(=O)N(C)CCOCC(=O)N2CCC(CCCN3CCC3)CC2)c(C)c1.O=C(O)/C=C/C(=O)O | 65
4 | COc1cc(C)c(S(=O)(=O)N(C)CCOCC(=O)N2CCC(CCCN(C)C)CC2)c(C)c1.O=C(O)/C=C/C(=O)O | 55
5 | COc1cc(C)c(S(=O)(=O)N(C)CCOCC(=O)N2CCN(CCCN3CCC3)CC2)c(C)c1.O=C(O)/C=C/C(=O)O.O=C(O)/C=C/C(=O)O | 82
6 | CCN(CCOCC(=O)N1CCN(CCCN(C)C)CC1)S(=O)(=O)c1c(C)cc(OC)cc1C.O=C(O)/C=C/C(=O)O.O=C(O)/C=C/C(=O)O | 60
7 | COc1cc(Cl)c(S(=O)(=O)N(C)CCOCC(=O)N2CCN(CCCN(C)C)CC2)c(Cl)c1.O=C(O)/C=C/C(=O)O.O=C(O)/C=C/C(=O)O | 60
8 | COc1cc(C)c(S(=O)(=O)N(C)CCOCC(=O)N2CCC(C(C)(C)CN3CCC3)CC2)c(C)c1.O=C(O)/C=C/C(=O)O | 60 to 62
9 | COc1cc(Cl)c(S(=O)(=O)N(C)CCOCC(=O)N2CCC(CCN(C)C)CC2)c(Cl)c1.O=C(O)/C=C/C(=O)O | 70
10 | COc1cc(C)c(S(=O)(=O)N(CCOCC(=O)N2CCN(CCN3CCCC3)CC2)C2CC2)c(C)c1 (as salt: fumarate) [Example 19, N-[2-[2-[4-[2-(1-pyrrolidinyl)ethyl]-1-piperazinyl]-2-oxo-ethoxy]ethyl]-4-methoxy-N-cyclopropyl-2,6-dimethylbenzenesulphonamide, difumarate] | 141
11 | CCN(CCOCC(=O)N1CCN(C2CCN(C)CC2)CC1)S(=O)(=O)c1c(C)cc(OC)cc1C (as salt: fumarate) [Example 21, N-[2-[2-[4-(1-methyl-4-piperidinyl)-1-piperazinyl]-2-oxo-ethoxy]ethyl]-4-methoxy-N-ethyl-2,6-dimethylbenzenesulphonamide, difumarate] | 206
12 | COc1cc(C)c(S(=O)(=O)N(C)CCOCC(=O)N2CCN(C3CCN(C(C)(C)C)CC3)CC2)c(C)c1 (as salt: fumarate) [Example 32, N-[2-[2-[4-[1-(1,1-dimethylethyl)-4-piperidinyl]-1-piperazinyl]-2-oxo-ethoxy]ethyl]-4-methoxy-N,2,6-trimethylbenzenesulphonamide, difumarate] | 230
13 | COc1cc(C)c(S(=O)(=O)N(C)CCOCC(=O)N2CCN(CCCN3CCN(C)CC3)CC2)c(C)c1 (as salt: fumarate) [Example 45, N-[2-[2-[4-[3-(4-methyl-1-piperazinyl)propyl]-1-piperazinyl]-2-oxo-ethoxy]ethyl]-4-methoxy-N,2,6-trimethylbenzenesulphonamide, difumarate] | 204
14 | CCN1C2CCC1CC(N1CCN(C(=O)COCCN(C)S(=O)(=O)c3c(C)cc(OC)cc3C)CC1)C2 (stereo not drawn) (as salt: fumarate) [Example 46, N-[2-[2-[4-(8-ethyl-8-azabicyclo[3.2.1]oct-3-yl)-1-piperazinyl]-2-oxo-ethoxy]ethyl]-4-methoxy-N,2,6-trimethylbenzenesulphonamide, difumarate] | 132
15 | COc1cc(C)c(S(=O)(=O)N(C)CCOCC(=O)N2CCC(CCN3CCCC3)CC2)c(C)c1 (as salt: fumarate) [Example 76, 4-methoxy-N,2,6-trimethyl-N-[2-[2-[4-[2-(1-pyrrolidinyl)ethyl]-1-piperidinyl]-2-oxoethoxy]ethyl]benzenesulphonamide, fumarate] | 55
16 | COc1cc(C)c(S(=O)(=O)N(CCOCC(=O)N2CCC(CCN3CCCC3)CC2)C2CC2)c(C)c1 (as salt: fumarate) [Example 79, N-cyclopropyl-4-methoxy-2,6-dimethyl-N-[2-[2-[4-[2-(1-pyrrolidinyl)ethyl]-1-piperidinyl]-2-oxoethoxy]ethyl]benzenesulphonamide, fumarate] | 50

target: T1, B1 receptor of bradykinin (Homo sapiens, UniProt P46663); experiment: human umbilical vein contraction by des-Arg10-Kallidin, antagonism at the B1 receptor of bradykinin; type: cell-based; details: isolated human umbilical vein rings, agonist des-Arg10-Kallidin, pKB=-log KB from EC50 concentration ratio
T1 construct: To induce expression of the B1 receptor of bradykinin, the vein segments are allowed to incubate at 37° C; from tissue; host or cells: human umbilical vein rings, endothelium removed, incubated 16 h in EMEM to induce the receptor
T1 sequence (P46663 1-353): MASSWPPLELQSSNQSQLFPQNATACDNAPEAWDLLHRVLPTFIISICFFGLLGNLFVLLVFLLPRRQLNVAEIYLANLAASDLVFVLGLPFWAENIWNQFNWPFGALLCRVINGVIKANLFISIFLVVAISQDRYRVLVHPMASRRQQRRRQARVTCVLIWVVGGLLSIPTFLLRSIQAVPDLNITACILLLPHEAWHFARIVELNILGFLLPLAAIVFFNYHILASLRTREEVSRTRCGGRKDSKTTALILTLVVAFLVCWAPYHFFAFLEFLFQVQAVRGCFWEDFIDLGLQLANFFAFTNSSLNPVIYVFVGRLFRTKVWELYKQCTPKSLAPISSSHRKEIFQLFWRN
Method: This test uses the human umbilical vein and is conducted as per the following protocol:
The cord is dissected in Krebs solution to release the umbilical vein. The vein is cleansed of all adhering tissue and cut into small rings 3-4 mm in width. The endothelium is carefully removed by inserting a fine n° 1 catheter, made slightly abrasive, into the vessel lumen.
After a series of rinsings, rests and load readjustments, the maximum contraction of each segment is determined by further depolarisation with the KPSS solution.
After a new rest period during which the 1 g load is constantly readjusted, the following compounds are added to the isolated organ bath: Mepyramine (1 μM), Atropine (1 μM), Indometacine (3 μM), LNA (30 μM), Captopril (10 μM), DL-Thiorphan (1 μM) and Nifedipine (0.1 μM).
After 20 minutes, the molecule to be tested or the molecule solvent is added to the isolated organ bath. The molecules are examined at 10 μM; should a molecule show a sufficient level of activity, it is examined at lower concentrations (eg: 1-0.1-0.01 μM).
After 15 minutes incubation, the vein segments are contracted through the addition of increasing concentrations of des-Arg10-Kallidin (0.1 nM to 30 000 nM) in the chamber.
The pKB=[−log KB] is obtained from the equation: KB—[A]/(concentration ratio−1) in which [A] is the concentration of antagonist and the (concentration ratio) represents the ratio between EC50 in the presence of an antagonist and EC50 in the absence of antagonist.

Row | Compound | Kb [nM]
17 | COc1cc(C)c(S(=O)(=O)N(CCOCC(=O)N2CCN(CCN3CCCC3)CC2)C2CC2)c(C)c1 [Example 19, N-[2-[2-[4-[2-(1-pyrrolidinyl)ethyl]-1-piperazinyl]-2-oxo-ethoxy]ethyl]-4-methoxy-N-cyclopropyl-2,6-dimethylbenzenesulphonamide, difumarate] | 31.6
18 | CCN(CCOCC(=O)N1CCN(C2CCN(C)CC2)CC1)S(=O)(=O)c1c(C)cc(OC)cc1C [Example 21, N-[2-[2-[4-(1-methyl-4-piperidinyl)-1-piperazinyl]-2-oxo-ethoxy]ethyl]-4-methoxy-N-ethyl-2,6-dimethylbenzenesulphonamide, difumarate] | 15.8
19 | COc1cc(C)c(S(=O)(=O)N(C)CCOCC(=O)N2CCN(C3CCN(C(C)(C)C)CC3)CC2)c(C)c1 [Example 32, N-[2-[2-[4-[1-(1,1-dimethylethyl)-4-piperidinyl]-1-piperazinyl]-2-oxo-ethoxy]ethyl]-4-methoxy-N,2,6-trimethylbenzenesulphonamide, difumarate] | 0.631
20 | COc1cc(C)c(S(=O)(=O)N(C)CCOCC(=O)N2CCN(CCCN3CCN(C)CC3)CC2)c(C)c1 [Example 45, N-[2-[2-[4-[3-(4-methyl-1-piperazinyl)propyl]-1-piperazinyl]-2-oxo-ethoxy]ethyl]-4-methoxy-N,2,6-trimethylbenzenesulphonamide, difumarate] | 12.6
21 | CCN1C2CCC1CC(N1CCN(C(=O)COCCN(C)S(=O)(=O)c3c(C)cc(OC)cc3C)CC1)C2 (stereo not drawn) [Example 46, N-[2-[2-[4-(8-ethyl-8-azabicyclo[3.2.1]oct-3-yl)-1-piperazinyl]-2-oxo-ethoxy]ethyl]-4-methoxy-N,2,6-trimethylbenzenesulphonamide, difumarate] | 2.51
22 | COc1cc(C)c(S(=O)(=O)N(C)CCOCC(=O)N2CCC(CCN3CCCC3)CC2)c(C)c1 [Example 76, 4-methoxy-N,2,6-trimethyl-N-[2-[2-[4-[2-(1-pyrrolidinyl)ethyl]-1-piperidinyl]-2-oxoethoxy]ethyl]benzenesulphonamide, fumarate] | 10
23 | COc1cc(C)c(S(=O)(=O)N(CCOCC(=O)N2CCC(CCN3CCCC3)CC2)C2CC2)c(C)c1 [Example 79, N-cyclopropyl-4-methoxy-2,6-dimethyl-N-[2-[2-[4-[2-(1-pyrrolidinyl)ethyl]-1-piperidinyl]-2-oxoethoxy]ethyl]benzenesulphonamide, fumarate] | 7.94
24 | CCN1CCC(C2CCN(C(=O)COCCN(C)S(=O)(=O)c3c(C)cc(OC)cc3C)CC2)CC1 [Example 84, 4-methoxy-N,2,6-trimethyl-N-[2-[2-[4-(1-ethyl-4-piperidinyl)-1-piperidinyl]-2-oxoethoxy]ethyl]benzenesulphonamide, fumarate] | 0.631
25 | COc1cc(C)c(S(=O)(=O)N(C)CCOCC(=O)N2CCC(N3CCCN(C)CC3)CC2)c(C)c1 [Example 89, N-[2-[2-[4-(hexahydro-4-methyl-1H-1,4-diazepin-1-yl)-1-piperidinyl]-2-oxoethoxy]ethyl]-4-methoxy-N,2,6-trimethylbenzenesulphonamide, fumarate] | 7.94

tested on: formalin-induced pain response (paw licking); experiment: formalin-induced pain response test in mice; type: in vivo; details: oral route, dose 1 mg/kg, 2nd phase 15 to 30 min after formalin injection
Method: The compounds of the present invention were evaluated for their analgesic property using the formalin-induced pain response test in mice (Shibata, M., Ohkubo, T., Takahashi, H. & R. Inoki. Modified formalin test: characteristic biphasic pain response. Pain, 38, 347-352). To summarize, formalin (0.92% in physiological saline) is injected into the hind paw and the period of paw licking, which represents pain intensity, is recorded from 0 to 5 min (1st phase) and from 15 to 30 min (2nd phase) after the injection.

Row | Compound | percentage inhibition of the second paw licking phase induced by formalin [%]
26 | COc1cc(C)c(S(=O)(=O)N(C)CCOCC(=O)N2CCN([C@@H]3CN4CCC3CC4)CC2)c(C)c1 [Example 6, N-[2-[2-[4-[(3S)-1-azabicyclo[2.2.2]oct-3-yl]-1-piperazinyl]-2-oxo-ethoxy]ethyl]-4-methoxy-N,2,6-trimethylbenzenesulphonamide, fumarate] | 40

same assay, conditions: oral route, dose 3 mg/kg, 2nd phase 15 to 30 min after formalin injection

Row | Compound | percentage inhibition of the second paw licking phase induced by formalin [%]
27 | COc1cc(C)c(S(=O)(=O)N(C)CCOCC(=O)N2CCN(C3CN4CCC3CC4)CC2)c(C)c1 (racemic) [Example 4, N-[2-[2-[4-[(3RS)-1-azabicyclo[2.2.2]oct-3-yl]-1-piperazinyl]-2-oxo-ethoxy]ethyl]-4-methoxy-N,2,6-trimethylbenzenesulphonamide, difumarate] | 43
